Data: patent US6737383B1, “Herbicidal oxadiazolidines” (priority 1999, dated 2004)

Legend:
[1] = test system: rice; experiment: Test B flood test rice; format: in vivo, Oryza sativa
Method in brief: (§1)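 Plants were grown to the 2-leaf stage before treatment with test chemical, then held in a greenhouse for twelve to sixteen days. Injury was visually rated against untreated controls on a 0–10 scale, where 0 is no effect and 10 is complete control.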

[2] = test system: sugar beet; experiment: Test B pre/postemergence sugar beet; format: in vivo, Beta vulgaris
Method in brief: (§2)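 Response is a visual 0-to-10 score relative to untreated plants, where 0 means no effect and 10 means complete control, taken twelve to sixteen days after application. Treatments went onto soil at planting and onto foliage of 1- to 4-leaf plants, using a surfactant-containing non-phytotoxic solvent.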

[3] = test system: smallflower flatsedge; experiment: Test B flood test smallflower flatsedge; format: in vivo, Cyperus difformis
Method in brief: as §1

[4] = test system: bamyardgrass; experiment: Test B flood test barnyardgrass; format: in vivo, Echinochloa crus-galli
Method in brief: as §1

[5] = test system: bedstraw; experiment: Test B pre/postemergence bedstraw; format: in vivo, Galium aparine
Method in brief: as §2

[6] = test system: velvetleaf; experiment: Test B pre/postemergence velvetleaf; format: in vivo, Abutilon theophrasti
Method in brief: as §2

[7] = test system: morningglory; experiment: Test B pre/postemergence morningglory; format: in vivo, Ipomoea hederacea
Method in brief: as §2

[8] = test system: pigweed; experiment: Test B pre/postemergence pigweed; format: in vivo, Amaranthus retroflexus
Method in brief: as §2

[9] = test system: corn; experiment: Test B pre/postemergence corn; format: in vivo, Zea mays
Method in brief: as §2

[10] = test system: blackgrass; experiment: Test B pre/postemergence blackgrass; format: in vivo, Alopecurus myosuroides
Method in brief: as §2

[11] = test system: purple nutsedge; experiment: Test B pre/postemergence purple nutsedge; format: in vivo, Cyperus rotundus
Method in brief: as §2

[12] = test system: soybean; experiment: Test B pre/postemergence soybean; format: in vivo, Glycine max
Method in brief: as §2

[13] = test system: surinam grass; experiment: Test B pre/postemergence surinam grass; format: in vivo, Brachiaria decumbens
Method in brief: as §2

[14] = test system: cocklebur; experiment: Test B pre/postemergence cocklebur; format: in vivo, Xanthium strumarium
Method in brief: as §2

[15] = test system: wild oat; experiment: Test B pre/postemergence wild oat; format: in vivo, Avena fatua
Method in brief: as §2

[16] = test system: rape; experiment: Test B pre/postemergence rape; format: in vivo, Brassica napus
Method in brief: as §2

[17] = Postemergence, Rate 62 g/ha, scale 0 to 10, 0 is no effect, 10 is complete control
[18] = Rate 125 g/ha, Postemergence section (flood test species), scale 0 to 10, 0 no effect, 10 complete control
[19] = Rate 500 g/ha, listed under Postemergence (flood test species), scale 0 to 10, 0 no effect, 10 complete control
[20] = flood test, listed under Postemergence, Rate 250 g/ha, scale 0 to 10, 0 no effect, 10 complete control
[21] = Postemergence, Rate 250 g/ha, scale 0 to 10, 0 no effect, 10 complete control
[22] = Preemergence, Rate 62 g/ha, scale 0 to 10 (0 no effect, 10 complete control)
[23] = Preemergence, Rate 125 g/ha, scale 0 to 10 (0 no effect, 10 complete control)
[24] = Preemergence, Rate 250 g/ha, scale of 0 to 10 where 0 is no effect and 10 is complete control
[25] = Preemergence, Rate 500 g/ha, scale 0 (no effect) to 10 (complete control)
[26] = Rate 125 g/ha, Postemergence, scale 0 to 10, 0 no effect, 10 complete control
[27] = Rate 500 g/ha, Postemergence, scale 0 to 10, 0 no effect, 10 complete control

CCN(C(=O)n1oc(=O)n(-c2c(C)cc(C)cc2C)c1=O)C1CCCCC1 [Compound 63]
6: Nutsedge plant response rating [11, 25]
5: Velvetleaf plant response rating [6, 21] | Velvetleaf plant response rating [6, 27]
0: Rice plant response rating [1, 17] | Rice plant response rating [1, 18] | Rice plant response rating [1, 19] | Rice plant response rating [1, 20] | Sugarbeets plant response rating [2, 17] | Sugarbeets plant response rating [2, 22] | Plant response rating, Sugarbeets [2, 23] | Plant response rating, Sugarbeets [2, 24] | Sugarbeets plant response rating [2, 25] | Sugarbeets plant response rating [2, 26] | S. Flatsedge plant response rating [3, 17] | S. Flatsedge plant response rating [3, 18] | S. Flatsedge plant response rating [3, 19] | S. Flatsedge plant response rating [3, 20] | Barnyardgrass plant response rating [4, 17] | Barnyardgrass plant response rating [4, 18] | Barnyardgrass plant response rating [4, 19] | Barnyardgrass plant response rating [4, 20] | Bedstraw plant response rating [5, 17] | Bedstraw plant response rating [5, 22] | Plant response rating, Bedstraw [5, 23] | Plant response rating, Bedstraw [5, 24] | Bedstraw plant response rating [5, 26] | Velvetleaf plant response rating [6, 22] | Plant response rating, Velvetleaf [6, 23] | Morningglory plant response rating [7, 17] | Morningglory plant response rating [7, 22] | Plant response rating, Morningglory [7, 23] | Plant response rating, Morningglory [7, 24] | Morningglory plant response rating [7, 25] | Redroot pigweed plant response rating [8, 17] | Redroot pigweed plant response rating [8, 21] | Redroot pigweed plant response rating [8, 22] | Plant response rating, Redroot pigweed [8, 23] | Plant response rating, Redroot pigweed [8, 24] | Redroot pigweed plant response rating [8, 25] | Redroot pigweed plant response rating [8, 26] | Corn plant response rating [9, 17] | Corn plant response rating [9, 22] | Plant response rating, Corn [9, 23] | Plant response rating, Corn [9, 24] | Corn plant response rating [9, 25] | Corn plant response rating [9, 26] | Blackgrass plant response rating [10, 17] | Blackgrass plant response rating [10, 21] | Blackgrass plant response rating [10, 22] | Plant response rating, Blackgrass [10, 23] | Plant response rating, Blackgrass [10, 24] | Blackgrass plant response rating [10, 25] | Blackgrass plant response rating [10, 26] | Blackgrass plant response rating [10, 27] | Nutsedge plant response rating [11, 17] | Nutsedge plant response rating [11, 22] | Plant response rating, Nutsedge [11, 23] | Plant response rating, Nutsedge [11, 24] | Nutsedge plant response rating [11, 26] | Soybean plant response rating [12, 22] | Plant response rating, Soybean [12, 23] | Plant response rating, Soybean [12, 24] | Soybean plant response rating [12, 25] | B. signalgrass plant response rating [13, 17] | B. signalgrass plant response rating [13, 21] | B. signalgrass plant response rating [13, 22] | Plant response rating, B. signalgrass [13, 23] | Plant response rating, B. signalgrass [13, 24] | B. signalgrass plant response rating [13, 25] | B. signalgrass plant response rating [13, 26] | B. signalgrass plant response rating ([13]; Rate 500 g/ha, Postemergence, scale of 0 to 10 where 0 is no effect and 10 is complete control) | Cocklebur plant response rating [14, 17] | Cocklebur plant response rating [14, 21] | Cocklebur plant response rating [14, 22] | Plant response rating, Cocklebur [14, 23] | Plant response rating, Cocklebur [14, 24] | Cocklebur plant response rating [14, 25] | Cocklebur plant response rating [14, 26] | Cocklebur plant response rating [14, 27] | Wild oats plant response rating [15, 17] | Wild oats plant response rating [15, 21] | Wild oats plant response rating [15, 22] | Plant response rating, Wild oats [15, 23] | Plant response rating, Wild oats [15, 24] | Wild oats plant response rating [15, 25] | Wild oats plant response rating [15, 26] | Rape plant response rating [16, 17] | Rape plant response rating [16, 21] | Rape plant response rating [16, 22] | Plant response rating, Rape [16, 23] | Plant response rating, Rape [16, 24] | Rape plant response rating [16, 26] | Rape plant response rating [16, 27]
4: Morningglory plant response rating [7, 21] | Morningglory plant response rating [7, 27]
2: Sugarbeets plant response rating [2, 21] | Plant response rating, Velvetleaf [6, 24] | Morningglory plant response rating [7, 26] | Redroot pigweed plant response rating [8, 27] | Corn plant response rating [9, 21] | Corn plant response rating [9, 27] | Nutsedge plant response rating [11, 21] | Nutsedge plant response rating [11, 27] | Soybean plant response rating [12, 17] | Soybean plant response rating [12, 21] | Soybean plant response rating [12, 26] | Wild oats plant response rating [15, 27]
3: Sugarbeets plant response rating [2, 27] | Bedstraw plant response rating [5, 21] | Bedstraw plant response rating [5, 25] | Velvetleaf plant response rating [6, 17] | Velvetleaf plant response rating [6, 25] | Velvetleaf plant response rating [6, 26] | Soybean plant response rating [12, 27]
